{
  "source": "patent US20230053941A1",
  "about": "“MICROEMULSIONS WITH DICAMBA SALTS HAVING IMPROVED PROPERTIES” (MONSANTO TECHNOLOGY LLC, priority 2020, published 2023)",
  "test": "Partition coefficient of compound (A) in solvents",
  "assay_type": "physicochemical",
  "conditions": "HPLC, approximately 25° C.",
  "protocol": "Experimental procedure for the respective solvent: (1) A solution of 10 g of compound (A) is prepared in 90 g of the respective solvent. (2) An aliquot of 10 g of the solution obtained in step (1) is added to 90 g of water in a glass bottle, which is shaken on a mechanical shaker for 4 hours at ambient temperature (approximately 25° C.). (3) The contents of the glass bottle are permitted to phase separate for 4 days at ambient temperature (approximately 25° C.). (4) Subsamples of the resulting oil and water phases are taken and analyzed by HPLC to determine the concentrations of compound (A) in oil (Co) and water phases (Cw) respectively. The subsamples are typically centrifuged before HPLC analysis to remove traces of organic solvent from the water phase.\nA Partition Coefficient, analogous to the Octanol-Water Partition Coefficient, P, is calculated as Co/Cw. The Partition Coefficient is conveniently expressed as a logarithm […].\nThe ratio of determined concentrations of compound (A) in the solvent phase and the water phase typically is very large. […] In other cases, traces of the organic solvent are found in the water phase, even after centrifugation, so that the apparent concentration of oil-soluble herbicide observed in the water phase is misleadingly high. […]",
  "data": [
    {"smiles": "CCOC(=O)COc1ncccc1Oc1cc(-n2c(=O)cc(C(F)(F)F)n(C)c2=O)c(F)cc1Cl", "note": "[Cmp. A, ethyl [3-[2-chloro-4-fluoro-5-(1-methyl-6-trifluoromethyl-2,4-dioxo-1,2,3,4-tetrahydropyrimidin-3-yl)phenoxy]-2-pyridyloxy]acetate]", "values": [
      {"measurement": "compound (A) in the water phase", "setting": "acetophenone as organic solvent", "result": "undetectable"},
      {"measurement": "compound (A) in the water phase", "setting": "aromatic 200 ND as organic solvent", "result": "undetectable"}
    ]}
  ]
}
